Test results taken from patent US20130243707A1, “TOPICAL COMPOSITIONS” (priority 2006, published 2013).
Each block holds one compound with its values, some of them ahead of it.

How the values were obtained:
[1] = Solubility of Drugs in single solvent alcohols; assay type: physicochemical
Method: Briefly, the indicated NSAID was weighed and added to a beaker. To each beaker, incremental amounts of the indicated solvent was weighed and added. The beakers were sealed with aluminum foil and placed at room temperature or in a 35 C water bath for 20-30 minutes. They beakers were shaken frequently to mix the contents. After 20-30 minutes the solvent alcohols were examined. If a single phasic solution was not yet achieved, an additional aliquot of the solvent was added and the cycle was repeated until complete solvation had occurred.

[2] = Super-solvent effect (Drug solubilized by combinations of solvent alcohols); assay type: physicochemical
Method: Methods. First, the amount of each solvent alcohol required to solubilize one gram of NSAID was determined (saturation amount). Next, each combination of 2, 3 and 4 solvent alcohols were made using the saturation amounts determined by the first step. Finally, the amount of drug that could be solubilized by the solvent systems (i.e. the solvent alcohol combinations) was determined. The super-solvent effect was determined using this protocol, where percent=actual grams solubilized divided by the predicted grams (based upon the first step) expressed as percent increase (e.g. if twice the predicted amount could be solubilized, the super-solvent effect would be % 100.

[3] = Maximal NSAID and water concentrations in PG/PEG solvent systems; assay type: physicochemical; parameters: B maximum: unit not given here
Text: With the teaching herein, useful Drug and water concentrations can be determined for a given solvent system. Such concentrations can be described by the equation W=mD+b, where W is a water concentration, D is the Drug concentration, b is the y intercept, and m is the slope.

[4] = cited from earlier work
[5] = cited from earlier work; remark: listed apart in the source
[6] = Super-solvent water effect (maximum water before NSAID precipitates); assay type: physicochemical; conditions: for Super-solvent Effect: in %
Method: Methods. […] These amounts are chosen based upon the solubility of one gram of NSAID and the amount of the single solvent alcohol for saturation. Next, water was added in step-wise manner to determine the maximum amount that can be added before any visible amount of the NSAID precipitated (i.e., the volume of water that can be added and yet remain single phasic).

[7] = Flurbiprofen 2 gm, EtOH 2 gm, IPA 3 gm
[8] = Flurbiprofen 2 gm, PEG 2 gm, EtOH 2 gm
[9] = Flurbiprofen 2 gm, PEG 2 gm, IPA 3 gm
[10] = Flurbiprofen 2 gm, PG 6 gm, EtOH 2 gm
[11] = Flurbiprofen 2 gm, PG 6 gm, IPA 3 gm
[12] = Flurbiprofen 2 gm, PG 6 gm, PEG 2 gm
[13] = Flurbiprofen 3 gm, PEG 2 gm, EtOH 2 gm, IPA 3 gm
[14] = Flurbiprofen 3 gm, PG 6 gm, EtOH 2 gm, IPA 3 gm
[15] = Flurbiprofen 3 gm, PG 6 gm, PEG 2 gm, EtOH 2 gm
[16] = Flurbiprofen 3 gm, PG 6 gm, PEG 2 gm, IPA 3 gm
[17] = Flurbiprofen 4 gm, PG 6 gm, PEG 2 gm, EtOH 2 gm, IPA 3 gm

Compound: CN1C(C(=O)Nc2ccccn2)=C(O)c2ccccc2S1(=O)=O [piroxicam]
pKa [4]: 3.6
Log P [5]: 1.8

Compound: O=C(O)c1cccnc1Nc1cccc(C(F)(F)F)c1 [Niflumic]
Maximum Drug Concentration in single alcohol: EtOH ([1]; Solubility at Room Temperature): 3.23

Compound: O=C(O)Cc1ccc(-c2ccccc2)cc1 [felbinac]
pKa [4]: 4.29

Compound: O=C(O)Cc1ccccc1Nc1c(Cl)cccc1Cl [Diclofenac]
Maximum Drug Concentration in single alcohol: EtOH ([1]; Solubility at 35 C): 14.29
Maximum Drug Concentration in single alcohol: PEG ([1]; Solubility at 35 C): 8.33
Maximum Drug Concentration in single alcohol: PG ([1]; Solubility at 35 C): 14.29
Maximum Drug Concentration in single alcohol: EtOH ([1]; Solubility at Room Temperature): 11.11
Maximum Drug Concentration in single alcohol: PEG ([1]; Solubility at Room Temperature): 7.69
Maximum Drug Concentration in single alcohol: PG ([1]; Solubility at Room Temperature): 14.29
Super-solvent Effect ([2]; PEG 400 11 gr, EtOH 6 gr): 81.0%
Super-solvent Effect ([2]; PG 6 gr, EtOH 6 gr): 90.9%
Super-solvent Effect ([2]; PG 6 gr, PEG 400 11 gr): 62.2%
Super-solvent Effect ([2]; PG 6 gr, PEG 400 11 gr, EtOH 6 gr): 54.8%

Compound: Cc1cccc(Nc2ccccc2C(=O)O)c1C [mefenamic acid]
pKa [4]: 3.69
Log P [5]: 5.12

Compound: C=CCOc1ccc(CC(=O)O)cc1Cl [alclofenac]
pKa [4]: 4.26
Log P [5]: 2.47

Compound: CC(C(=O)O)c1ccc(-c2ccccc2)c(F)c1 (stereo not shown) [Flurbiprofen]
Maximum Drug Concentration in single alcohol: EtOH ([1]; Solubility at 35 C): 33.33
Maximum Drug Concentration in single alcohol: IPA ([1]; Solubility at 35 C): 25.00
Maximum Drug Concentration in single alcohol: PEG ([1]; Solubility at 35 C): 33.33
Maximum Drug Concentration in single alcohol: PG ([1]; Solubility at 35 C): 14.29
Maximum Drug Concentration in single alcohol: EtOH ([1]; Solubility at Room Temperature): 16.67
Maximum Drug Concentration in single alcohol: IPA ([1]; Solubility at Room Temperature): 14.29
Maximum Drug Concentration in single alcohol: PEG ([1]; Solubility at Room Temperature): 12.50
Maximum Drug Concentration in single alcohol: PG ([1]; Solubility at Room Temperature): 6.25
Flurbiprofen % W/W ([6]; Flurbiprofen 1 gm, EtOH 2 gm): 20.0 % W/W
Water Observed ([6]; Flurbiprofen 1 gm, EtOH 2 gm): 2 gm
Flurbiprofen % W/W ([6]; Flurbiprofen 1 gm, IPA 3 gm): 14.3 % W/W
Water Observed ([6]; Flurbiprofen 1 gm, IPA 3 gm): 3 gm
Flurbiprofen % W/W ([6]; Flurbiprofen 1 gm, PEG 2 gm): 25.0 % W/W
Water Observed ([6]; Flurbiprofen 1 gm, PEG 2 gm): 1 gm
Flurbiprofen % W/W ([6]; Flurbiprofen 1 gm, PG 6 gm): 12.5 % W/W
Water Observed ([6]; Flurbiprofen 1 gm, PG 6 gm): 1 gm
Flurbiprofen % W/W [6, 7]: 18.2 % W/W
Super-solvent Effect [6, 7]: 37.1
Flurbiprofen % W/W [6, 8]: 25.0 % W/W
Super-solvent Effect [6, 8]: 0.0
Flurbiprofen % W/W [6, 9]: 15.4 % W/W
Super-solvent Effect [6, 9]: 135.7
Flurbiprofen % W/W [6, 10]: 12.5 % W/W
Super-solvent Effect [6, 10]: 160.0
Flurbiprofen % W/W [6, 11]: 11.8 % W/W
Super-solvent Effect [6, 11]: 104.5
Flurbiprofen % W/W [6, 12]: 14.3 % W/W
Super-solvent Effect [6, 12]: 140.0
Flurbiprofen % W/W [6, 13]: 18.8 % W/W
Super-solvent Effect [6, 13]: 60.0
Flurbiprofen % W/W [6, 14]: 13.6 % W/W
Super-solvent Effect [6, 14]: 90.5
Flurbiprofen % W/W [6, 15]: 17.6 % W/W
Super-solvent Effect [6, 15]: 30.8
Flurbiprofen % W/W [6, 16]: 13.6 % W/W
Super-solvent Effect [6, 16]: 117.1
Flurbiprofen % W/W [6, 17]: 15.4 % W/W
Super-solvent Effect [6, 17]: 81.5
pKa [4]: 4.14
Log P [5]: 4.16

Compound: O=C(O)c1ccccc1Nc1cccc(C(F)(F)F)c1 [flufenamic acid]
Log P [5]: 5.62

Compound: CC(C(=O)O)c1ccc(C(=O)c2ccccc2)s1 (stereo not shown) [tiaprofenic acid]
pKa [4]: 4.05

Now from value to compound, other results behind:

Maximum Drug Concentration in single alcohol: EtOH ([1]; Solubility at 35 C): 16.67
Maximum Drug Concentration in single alcohol: IPA ([1]; Solubility at 35 C): 8.33
Maximum Drug Concentration in single alcohol: PEG ([1]; Solubility at 35 C): 10.00
Maximum Drug Concentration in single alcohol: PG ([1]; Solubility at 35 C): 10.00
Maximum Drug Concentration in single alcohol: EtOH ([1]; Solubility at Room Temperature): 9.52
Maximum Drug Concentration in single alcohol: IPA ([1]; Solubility at Room Temperature): 4.35
Maximum Drug Concentration in single alcohol: PEG ([1]; Solubility at Room Temperature): 5.41
Maximum Drug Concentration in single alcohol: PG ([1]; Solubility at Room Temperature): 4.76
Super-solvent Effect ([2]; EtOH 5 gr, IPA 11 gr): 21.6%
Super-solvent Effect ([2]; PEG 400 9 gr, EtOH 5 gr): 60.0%
Super-solvent Effect ([2]; PEG 400 9 gr, EtOH 5 gr, IPA 11 gr): 55.6%
Super-solvent Effect ([2]; PEG 400 9 gr, IPA 11 gr): 63.8%
Super-solvent Effect ([2]; PG 9 gr, EtOH 5 gr): 21.2%
Super-solvent Effect ([2]; PG 9 gr, EtOH 5 gr, IPA 11 gr): 14.6%
Super-solvent Effect ([2]; PG 9 gr, IPA 11 gr): 22.2%
Super-solvent Effect ([2]; PG 9 gr, PEG 400 9 gr): 22.0%
Super-solvent Effect ([2]; PG 9 gr, PEG 400 9 gr, EtOH 5 gr): 41.8%
Super-solvent Effect ([2]; PG 9 gr, PEG 400 9 gr, EtOH 5 gr, IPA 11 gr): 52.5%
Super-solvent Effect ([2]; PG 9 gr, PEG 400 9 gr, IPA 11 gr): 43.3%
B maximum ([3]; PG/PEG 1/3, b of y = −5.7055x + b): 100
B maximum ([3]; PG/PEG 1/4, b of y = −6.4787x + b): 118
B maximum ([3]; PG/PEG 2/2, b of y = −11.52x + b): 154
B maximum ([3]; PG/PEG 3/4, b of y = −7.7243x + b): 124
B maximum ([3]; PG/PEG 4/3, b of y = −6.3927x + b): 102
Compound: CC(=O)Nc1ccc(O)cc1 [Acetaminophen]

Maximum Drug Concentration in single alcohol: EtOH ([1]; Solubility at Room Temperature): 0.25
Maximum Drug Concentration in single alcohol: IPA ([1]; Solubility at Room Temperature): 0.10
Maximum Drug Concentration in single alcohol: PEG ([1]; Solubility at Room Temperature): 0.05
Maximum Drug Concentration in single alcohol: PG ([1]; Solubility at Room Temperature): 0.05
Compound: COc1ccc2c(c1)c(CC(=O)O)c(C)n2C(=O)c1ccc(Cl)cc1 [Indomethacin]
Log P [5]: 3.08

Maximum Drug Concentration in single alcohol: EtOH ([1]; Solubility at Room Temperature): 1.23
Maximum Drug Concentration in single alcohol: IPA ([1]; Solubility at Room Temperature): 0.62
Compound: CCCCOc1ccc(CC(=O)NO)cc1 [Bufexamac]

Water Added Until Precipitation Occurs ([3]; Naproxen 0.1215 gm, PG 2 gm, PEG 400 2 gm): 3.5 gm
Water Added Until Precipitation Occurs ([3]; Naproxen 0.1755 gm, PG 1 gm, PEG 400 3 gm): 3.5 gm
Water Added Until Precipitation Occurs ([3]; Naproxen 0.1755 gm, PG 4 gm, PEG 400 3 gm): 5 gm
Water Added Until Precipitation Occurs ([3]; Naproxen 0.2295 gm, PG 3 gm, PEG 400 4 gm): 6.5 gm
Water Added Until Precipitation Occurs ([3]; Naproxen 0.27 gm, PG 1 gm, PEG 400 4 gm): 4.5 gm
Water Added Until Precipitation Occurs ([3]; Naproxen 0.324 gm, PG 2 gm, PEG 400 2 gm): 1 gm
Water Added Until Precipitation Occurs ([3]; Naproxen 0.405 gm, PG 2 gm, PEG 400 2 gm): 0.5 gm
Water Added Until Precipitation Occurs ([3]; Naproxen 0.468 gm, PG 1 gm, PEG 400 3 gm): 1 gm
Water Added Until Precipitation Occurs ([3]; Naproxen 0.468 gm, PG 4 gm, PEG 400 3 gm): 2.5 gm
Water Added Until Precipitation Occurs ([3]; Naproxen 0.54 gm, PG 1 gm, PEG 400 4 gm): 2.5 gm
Water Added Until Precipitation Occurs ([3]; Naproxen 0.585 gm, PG 1 gm, PEG 400 3 gm): 0.5 gm
Water Added Until Precipitation Occurs ([3]; Naproxen 0.585 gm, PG 4 gm, PEG 400 3 gm): 1.5 gm
Water Added Until Precipitation Occurs ([3]; Naproxen 0.612 gm, PG 3 gm, PEG 400 4 gm): 2.5 gm
Water Added Until Precipitation Occurs ([3]; Naproxen 0.675 gm, PG 1 gm, PEG 400 4 gm): 1 gm
Water Added Until Precipitation Occurs ([3]; Naproxen 0.765 gm, PG 3 gm, PEG 400 4 gm): 1.5 gm
Drug concentration range obtained at saturation ([3]; PG and PEG 50% to 82%, PG to PEG ratio 0.33 to 1.3): up to 13%
B maximum (intercept of water versus Naproxen line) ([3]; PG/PEG 1/3): 52.794
B maximum (intercept of water versus Naproxen line) ([3]; PG/PEG 1/4): 47.637
B maximum (intercept of water versus Naproxen line) ([3]; PG/PEG 2/2): 54.158
B maximum (intercept of water versus Naproxen line) ([3]; PG/PEG 3/4): 52.964
B maximum (intercept of water versus Naproxen line) ([3]; PG/PEG 4/3): 56.913
Compound: COc1ccc2cc([C@H](C)C(=O)O)ccc2c1 [Naproxen]
